{
  "source": "patent US9505744B2",
  "about": "“Solid state forms of vilazodone and vilazodone hydrochloride” (Assia Chemical Industries Ltd., priority 2011, dated 2016)",
  "assay_type_in_all_cases": "physicochemical",
  "key": {"[1]": {"test": "Hausner ratio (tapped density / poured (bulk) density)", "from_the_text": "These properties enable improve tablet density uniformity, weight variation, homogeneity, die fill characteristics, dimensional control and ejection characteristics."}, "[2]": {"test": "Polymorphic stability on exposure to humidity", "conditions": "100% relative humidity for at least a few moths", "from_the_text": "Form Lambda doesn't convert to another polymorph when exposed to humidity."}, "[3]": {"test": "Wettability"}, "[4]": {"test": "Compressibility: pressing samples with 1 ton for 60 minutes", "conditions": "for appearance of palettes after pressing: pressed with 1 ton for 60 minutes"}, "[5]": {"test": "Chemical and polymorphic stability on exposure to heating and mechanical pressure", "conditions": "when exposed to heating and to mechanical pressure; hydrochloride"}},
  "note": "Counter-ions that a name gives are not always drawn.",
  "data": [
    {"molecule": "N#Cc1ccc2[nH]cc(CCCCN3CCN(c4ccc5oc(C(N)=O)cc5c4)CC3)c2c1", "note": "[Form Lambda, Vilazodone hydrochloride]", "values": [
      {"measurement": "Hausner ratio (ratio between tapped density and poured (bulk) density)", "setting": "[1]", "value": "favorable Hausner ratio"},
      {"measurement": "conversion to another polymorph when exposed to humidity", "setting": "[2]", "value": "remains unchanged"}
    ]},
    {"molecule": "N#Cc1ccc2[nH]cc(CCCCN3CCN(c4ccc5oc(C(N)=O)cc5c4)CC3)c2c1", "note": "[Form Alpha, Vilazodone hydrochloride]", "values": [
      {"measurement": "degree of wettability", "setting": "[3]", "value": "enhanced degree of wettability"},
      {"measurement": "compressibility", "setting": "[4]; API pressed into a palette", "value": "excellent compressibility"},
      {"measurement": "appearance of palettes after pressing", "setting": "[4]", "value": "high structural order and shape without visible lamination on the surface or breaking of the palettes"},
      {"measurement": "chemical and polymorphic stability", "setting": "[5]", "value": "chemically and polymorphically stable"}
    ]},
    {"molecule": "N#Cc1ccc2[nH]cc(CCCCN3CCN(c4ccc5oc(C(N)=O)cc5c4)CC3)c2c1", "note": "[Form Mu, Vilazodone hydrochloride]", "values": [
      {"measurement": "appearance of palettes after pressing", "setting": "[4]", "value": "high structural order and shape without visible lamination on the surface or breaking of the palettes"},
      {"measurement": "chemical and polymorphic stability", "setting": "[5]", "value": "high chemical and polymorphic stability"}
    ]}
  ]
}
